Assay results taken from US20080275078A1, “Pyrazolo[3,4-B] Pyridine Compounds and Their Use as Pde4 Inhibitors” (Glaxo Group Limited, priority 2004, published 2008).
Each block holds one compound with its values, some of them ahead of it.

Columns and labels:
[1] = test system: atopic dermatitis patients; details: 0.5% ointment, twice daily topical application; cited from earlier work
[2] = test system: dinitrofluorobenzene (DNFB)-induced delayed type hypersensitivity (DTH) response in pigs; experiment: In Vivo Assay A: pig model of atopic dermatitis, skin topical administration; details: for reduction in the mean summed score: ca. 2.5% (w/v) in DMSO/acetone solution, about 2 h prior to and 6 h after DNFB challenge, vs vehicle alone
Description: The pig DTH (delayed type hypersensitivity) model of contact hypersensitivity utilizes the Th2-mediated inflammatory response in pig skin to mimic the pathology of atopic dermatitis in humans. The model measures the potential anti-inflammatory effect of compounds, topically-applied to the skin, on the acute DTH (delayed type hypersensitivity) response in castrated male Yorkshire pigs.
In general in the assay, pigs (domestic Yorkshire pigs, 15-18 kg at time of sensitization, castrated males) are first sensitized by topical application of ca. 10% (w/v) dinitrofluorobenzene (DNFB) dissolved in DMSO:acetone:olive oil (ca. 1:5:3) (ca. 40 mg DNFB, 400 microlitre solution total) to the ears (outer) and groin (inner). The pigs are then challenged 12 days later with ca. 0.6% (w/v) DNFB applied to randomized sites on the shaved back of the pigs (ca. 90 micrograms/site; sites are identified and numbered by grid made with marking pen).
On the day of challenge, the treatments are performed at the challenge sites at about 2 hours prior to and about 6 hours after challenge (for DMSO/acetone solutions/suspensions containing the PDE4 inhibitor, to maximize exposure to drug), or at about 30 minutes after and about 6 hours after challenge (for topical ointments or creams containing the PDE4 inhibitor, representing a more clinically relevant treatment protocol).
One day (about 24 hrs) after challenge, and optionally again at ca. 48 hrs post challenge, test sites are visually evaluated for intensity and extent of erythema by measuring the diameter of the reaction at its widest point and assigning scores of 0 to 4 for each of erythema intensity and erythema extent. Induration (a measure of swelling) is also scored 0 to 4. Scores for erythema intensity, erythema extent and induration are assigned according to the following criteria: Intensity of Erythema: 0=normal, 1=minimal, barely visible, 2=mild, 3=moderate, 4=severe. Extent of Erythema (not raised): 0=no edema, 1=macules of pin head size, 2=lentil sized macules, 3=confluent macules, 4=diffuse over entire site. Induration (palpable): 0=normal, 1=nodules of pin head size, 2=doughy lentil sized nodules, 3=confluent firm nodules, 4=diffuse hard lesion. The summed visual score at ca. 24 hours includes the individual scores for erythema intensity, erythema extent, and induration; so the maximal summed score for each site would be 12. High summed scores can generally indicate a high inflammatory response. Visual scores are subject to some inaccuracy/error.
Differences in the summed score between adjacent control (placebo) and treatment sites on the grids are calculated. This difference value is then used to determine the percent inhibition compared to the summed score for the control (placebo) sites. The more negative the difference value, the greater the calculated inhibition. Percent inhibition of (percent inhibition compared to) the mean summed score can be calculated.
About 24 hours after challenge, treatment sites can optionally also be visually evaluated for lesion area.
The anti-inflammatory effect of the compound 4-{[1-(aminocarbonyl)-4-piperidinyl]amino}-N-[(3,4-dimethylphenyl)methyl]-1-ethyl-1H-pyrazolo[3,4-b]pyridine-5-carboxamide (“Example 2 or 2A compound”), applied topically to the skin, on the acute DTH response in castrated male Yorkshire pigs is compared to that of another PDE4 inhibitor cipamfylline (BRL-61063) and the topical immunomodulator pimecrolimus.
In the above assay, the Example 2 or 2A compound is topically administered: either (A) at ca. 2.5% (w/v) concentration in a solution of ca. 10% DMSO/90% acetone (ca. 50 microlitres or ca. 1.5 mg/site) at about 2 hours prior to and about 6 hours after the DNFB challenge; or (B) at ca. 0.5% (w/w) concentration in an ointment containing propylene glycol (PG)* (ca. 25 mg of formulation/site) at about 30 minutes after and about 6 hours after the DNFB challenge. […]

[3] = Preliminary aqueous solubility screen; type: physicochemical; details: pH 7.4 PBS with about 5% DMSO, about room temperature, free base
Method: Aqueous solubility: A preliminary screen aims to estimate roughly the aqueous solubility of compounds by (as an approximate summary): (i) creating a ca. 10 mM solution of the compound in DMSO, (ii) diluting a portion of this DMSO solution by mixing about 19 parts by volume of pH 7.4 aqueous phosphate buffered saline (PBS) buffer with 1 part by volume of the ca. 10 mM DMSO solution, (iii) “filtering” the mixture with the aid of centrifugation, and then (iv) measuring the concentration of the dissolved compound in the “filtrate”.

[4] = Preliminary test of systemic exposure after oral administration to rat(s); type: in vivo; details: about 1 mg/kg, free base, in approx. 10% DMSO and 90% PEG200/water (70:30), preliminary tests
Description: Although the compound of formula (I) or salt thereof may be administered orally, oral administration is not presently thought to be a preferred route of administration, at least for the compound 4-{[1-(aminocarbonyl)-4-piperidinyl]amino}-N-[(3,4-dimethylphenyl)methyl]-1-ethyl-1H-pyrazolo[3,4-b]pyridine-5-carboxamide (“free base” form) (e.g. Example 2, 2A or 2B).

Measured logD = type: physicochemical; details: octanol/water; pH=7.4, free base
COPD patients = details: cited from earlier work
[5] = test system: atopic dermatitis patients; details: 0.15% cream vs vehicle and hydrocortisone 17-butyrate (0.1%) cream; cited from earlier work

Structure (SMILES): COc1ccc(C2CNC(=O)NC2)cc1O[C@H]1C[C@@H]2CC[C@H]1C2 [CP80,633]
inflammatory parameters in atopic dermatitis patients [1]: reductions of inflammatory parameters

aqueous solubility [3]: about 60 micrograms of the compound/ml
systemic exposure after oral administration [4]: low systemic exposure
melting point: 152 to 154 °C
logD (Measured logD): ~3.4
Structure (SMILES): CCn1ncc2c(NC3CCN(C(N)=O)CC3)c(C(=O)NCc3ccc(C)c(C)c3)cnc21 [Example 2, 4-{[1-(aminocarbonyl)-4-piperidinyl]amino}-N-[(3,4-dimethylphenyl)methyl]-1-ethyl-1H-pyrazolo[3,4-b]pyridine-5-carboxamide]
inhibition of the mean summed score (erythema intensity, erythema extent, induration) ([2]; ca. 0.5% (w/w) in PG ointment, about 30 min and 6 h after DNFB challenge, vs placebo PG ointment, ca. 24 h, p<0.05): 13-14%
reduction in the mean summed score [2]: about 21%
lesion area ([2]; skin administration in DMSO/acetone or PG ointment, results subject to some inaccuracy/error): decrease the lesion area

Structure (SMILES): COc1ccc([C@]2(C#N)CC[C@@H](C(=O)O)CC2)cc1OC1CCCC1 [cilomilast]
forced expiratory volume (FEV1) in COPD patients (COPD patients; 15 mg orally twice daily): appears to improve forced expiratory volume
antiinflammatory effects in COPD patients (COPD patients; human, in vivo): appears to have antiinflammatory effects

Structure (SMILES): Nc1nc2c([nH]1)c(=O)n(CC1CC1)c(=O)n2CC1CC1 [cipamfylline, reference compound]
reduction in the summed scores ([2]; ca. 0.25% (w/w) in ointment, not statistically significant): 6-7%
reduction in the mean summed score [2]: about 8%
effectiveness in the treatment of atopic dermatitis patients [5]: significantly more effective than vehicle, but significantly less effective than hydrocortisone 17-butyrate (0.1%) cream

Structure (SMILES): O=C(Nc1c(Cl)cncc1Cl)c1ccc(OC(F)F)c(OCC2CC2)c1 [roflumilast]
FEV1 in COPD patients (COPD patients; roflumilast, Lipworth 2005): small improvements in FEV1
